Experimental data reported in patent US20230114728A1 (Venatorx Pharmaceuticals, Inc., priority 2019, published 2023).
In brackets after ≈: the same amount, converted by molar mass.

What was measured:
P. aeruginosa PBP3 = target: T1, P. aeruginosa PBP3 (Pseudomonas aeruginosa, UniProt G3XD46); assay: Bocillin-FL fluorescence polarization competition binding assay, P. aeruginosa PBP3; conditions: fluorescence polarization competition binding assay using Bocillin-FL
T1 construct: made in house
Outline: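 Inhibitor competition with Bocillin-FL for P. aeruginosa PBP3 was followed by fluorescence polarization on a Cytation3 (BioTek) reader, using g-factor 0.96, 490 nm excitation and 520 nm emission. The enzyme was at 0.75 μM and the probe at 0.1 μM in Hepes/NaCl/glycerol buffer, 80 μl per well. FP was recorded immediately after probe addition for up to 60 minutes. Potency was expressed as EC50, the concentration that reduces bound probe by 50%.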

N. gonorrhoeae WHO Z = assay: Liquid broth MIC in Fastidious broth; format: cell-based; conditions: Neisseria gonorrhoeae, read-out: Minimum Inhibitory Concentration, N. gonorrhoeae WHO Z
Outline: (§1)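 Mosaic PBP2 producers; colonies from 24 h chocolate agar, saline suspension, OD600. Fastidious broth, 2-fold dilutions, 5×10^5 CFU/mL. ~24 h, 36 °C, 5% CO2; visual MIC, <10% growth cutoff.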

N. gonorrhoeae WHO Q = assay: Liquid broth MIC in Fastidious broth; format: cell-based; conditions: Neisseria gonorrhoeae, read-out: Minimum Inhibitory Concentration, N. gonorrhoeae WHO Q
Outline: as §1

N. gonorrhoeae WHO L = assay: Liquid broth MIC in Fastidious broth; format: cell-based; conditions: Neisseria gonorrhoeae; N. gonorrhoeae strain WHO L; Fastidious broth; read-out: Minimum Inhibitory Concentration, N. gonorrhoeae WHO L
Outline: (§2)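 Colonies were swabbed from chocolate agar after 24 h growth and standardised by optical density at 600 nm. Compounds were serially diluted twofold in Fastidious broth, and bacteria added to give 5×10^5 CFU/mL. After about 24 h at 36 °C in 5% CO2, the lowest concentration allowing under 10% growth was taken as MIC.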

N. gonorrhoeae FA1090 = assay: Liquid broth MIC in Fastidious broth; format: cell-based; conditions: Neisseria gonorrhoeae; N. gonorrhoeae strain FA1090; Fastidious broth; read-out: Minimum Inhibitory Concentration, N. gonorrhoeae FA1090
Outline: as §2

[1] = system: N. gonorrhoeae ATCC 49226; assay: Liquid broth MIC in Fastidious broth; format: cell-based; conditions: Neisseria gonorrhoeae, ATCC49226; N. gonorrhoeae strain ATCC 49226; Fastidious broth; read-out: Minimum Inhibitory Concentration, N. gonorrhoeae ATCC 49226
Outline: as §2

N. gonorrhoeae WHO G = assay: Liquid broth MIC in Fastidious broth; format: cell-based; conditions: Neisseria gonorrhoeae; N. gonorrhoeae strain WHO G; Fastidious broth; read-out: Minimum Inhibitory Concentration, N. gonorrhoeae WHO G
Outline: as §2

N. gonorrhoeae H041 = assay: Liquid broth MIC in Fastidious broth; format: cell-based; conditions: Neisseria gonorrhoeae, H041, read-out: Minimum Inhibitory Concentration, N. gonorrhoeae H041
Outline: as §1

N. gonorrhoeae WHO K = assay: Liquid broth MIC in Fastidious broth; format: cell-based; conditions: Neisseria gonorrhoeae, read-out: Minimum Inhibitory Concentration, N. gonorrhoeae WHO K
Outline: as §1

T1 sequence (G3XD46 whole entry): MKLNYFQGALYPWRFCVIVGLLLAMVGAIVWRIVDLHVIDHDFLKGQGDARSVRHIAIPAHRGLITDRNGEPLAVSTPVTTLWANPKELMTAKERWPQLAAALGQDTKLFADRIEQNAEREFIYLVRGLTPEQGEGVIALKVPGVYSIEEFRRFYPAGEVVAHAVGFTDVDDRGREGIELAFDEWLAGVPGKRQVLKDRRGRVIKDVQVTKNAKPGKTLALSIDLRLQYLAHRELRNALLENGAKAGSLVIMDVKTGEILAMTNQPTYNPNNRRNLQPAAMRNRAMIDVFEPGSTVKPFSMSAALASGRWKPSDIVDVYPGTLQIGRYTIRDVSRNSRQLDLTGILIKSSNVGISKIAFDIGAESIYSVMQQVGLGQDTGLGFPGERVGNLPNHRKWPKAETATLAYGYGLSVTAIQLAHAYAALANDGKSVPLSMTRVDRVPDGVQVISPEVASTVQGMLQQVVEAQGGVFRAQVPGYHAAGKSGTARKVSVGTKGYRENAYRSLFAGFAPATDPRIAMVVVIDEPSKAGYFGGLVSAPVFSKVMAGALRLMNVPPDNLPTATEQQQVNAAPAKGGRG

SMILES | P. aeruginosa PBP3 Potency (P. aeruginosa PBP3) | MIC (N. gonorrhoeae WHO Z) [µg/mL] | MIC (N. gonorrhoeae WHO Q) [µg/mL] | MIC (N. gonorrhoeae WHO L) [µg/mL] | MIC (N. gonorrhoeae FA1090) [µg/mL] | MIC [1] [µg/mL] | MIC (N. gonorrhoeae WHO G) [µg/mL] | MIC (N. gonorrhoeae H041) [µg/mL] | MIC (N. gonorrhoeae WHO K) [µg/mL]
CCN1CCN(C(=O)NC(C(=O)N[C@H]2Cc3cccc(C(=O)O)c3OB2O)c2cccc(C(=O)O)c2)C(=O)C1=O (stereo partly drawn) [Example 113, (3R)-3-(2-(3-carboxyphenyl)-2-(4-ethyl-2,3-dioxopiperazine-1-carboxamido)acetamido)-2-hydroxy-3,4-dihydro-2H-benzo[e][1,2]oxaborinine-8-carboxylic acid] | D (D represents a potency <10 μM) | 16 to 32 (≈ 29 to 57.9 µM) | 16 to 32 (≈ 29 to 57.9 µM) | > 64 | 0.25 to 0.5 (≈ 0.453 to 0.905 µM) | 4 to 8 (≈ 7.24 to 14.5 µM) | 4 to 8 (≈ 7.24 to 14.5 µM) | > 64 | > 64
NS(=O)(=O)Nc1cccc(C(NC(=O)N2CCN(CCF)C(=O)C2=O)C(=O)N[C@H]2Cc3cccc(C(=O)O)c3OB2O)c1 (stereo partly drawn) [Example 116, (3R)-3-(2-(4-(2-fluoroethyl)-2,3-dioxopiperazine-1-carboxamido)-2-(3-(sulfamoylamino)phenyl)acetamido)-2-hydroxy-3,4-dihydro-2H-benzo[e][1,2]oxaborinine-8-carboxylic acid] | D (D represents a potency <10 μM) | 16 to 32 (≈ 25.8 to 51.6 µM) | 16 to 32 (≈ 25.8 to 51.6 µM) | > 64 | 0.25 to 0.5 (≈ 0.403 to 0.806 µM) | 16 to 32 (≈ 25.8 to 51.6 µM) | 4 to 8 (≈ 6.45 to 12.9 µM) | > 64 | 16 to 32 (≈ 25.8 to 51.6 µM)
NCCCN1CCN(C(=O)N[C@@H](C(=O)N[C@H]2Cc3cccc(C(=O)O)c3OB2O)c2cccc(NS(N)(=O)=O)c2)C(=O)C1=O [Example 117, (R)-3-((R)-2-(4-(3-aminopropyl)-2,3-dioxopiperazine-1-carboxamido)-2-(3-(sulfamoylamino)phenyl)acetamido)-2-hydroxy-3,4-dihydro-2H-benzo[e][1,2]oxaborinine-8-carboxylic acid] | D (D represents a potency <10 μM) | > 64 | > 64 | > 64 | 4 to 8 (≈ 6.33 to 12.7 µM) | > 64 | 16 to 32 (≈ 25.3 to 50.7 µM) | > 64 | > 64
NCCCN1CCN(C(=O)N[C@H](C(=O)N[C@H]2Cc3cccc(C(=O)O)c3OB2O)c2cccc(NS(N)(=O)=O)c2)C(=O)C1=O [Example 118, (R)-3-((S)-2-(4-(3-aminopropyl)-2,3-dioxopiperazine-1-carboxamido)-2-(3-(sulfamoylamino)phenyl)acetamido)-2-hydroxy-3,4-dihydro-2H-benzo[e][1,2]oxaborinine-8-carboxylic acid] | D (D represents a potency <10 μM) | > 64 | > 64 | > 64 | 4 to 8 (≈ 6.33 to 12.7 µM) | > 64 | > 64 | > 64 | > 64
NC1(CN2CCN(C(=O)NC(C(=O)N[C@H]3Cc4cccc(C(=O)O)c4OB3O)c3cccc(NS(N)(=O)=O)c3)C(=O)C2=O)CC1 (stereo partly drawn) [Example 120, (3R)-3-(2-(4-((1-aminocyclopropyl)methyl)-2,3-dioxopiperazine-1-carboxamido)-2-(3-(sulfamoylamino)phenyl)acetamido)-2-hydroxy-3,4-dihydro-2H-benzo[e][1,2]oxaborinine-8-carboxylic acid] | D (D represents a potency <10 μM) | > 64 | > 64 | > 64 | 4 to 8 (≈ 6.22 to 12.4 µM) | > 64 | > 64 | > 64 | > 64
O=C(O)c1c(F)ccc2c1OB(O)[C@@H](NC(=O)C(NC(=O)N1CCN(CCF)C(=O)C1=O)c1c(F)cc(O)cc1F)C2 (stereo partly drawn) [Example 129, (3R)-3-(2-(2,6-difluoro-4-hydroxyphenyl)-2-(4-(2-fluoroethyl)-2,3-dioxopiperazine-1-carboxamido)acetamido)-7-fluoro-2-hydroxy-3,4-dihydro-2H-benzo[e][1,2]oxaborinine-8-carboxylic acid] | D (D represents a potency <10 μM) | 4 to 8 (≈ 6.71 to 13.4 µM) | 16 to 32 (≈ 26.8 to 53.7 µM) | > 64 | 1 to 2 (≈ 1.68 to 3.35 µM) | 16 to 32 (≈ 26.8 to 53.7 µM) | 4 to 8 (≈ 6.71 to 13.4 µM) | 16 to 32 (≈ 26.8 to 53.7 µM) | 16 to 32 (≈ 26.8 to 53.7 µM)
CCN1CCN(C(=O)NC(C(=O)N[C@H]2Cc3ccc(F)c(C(=O)O)c3OB2O)c2c(F)cc(O)cc2F)C(=O)C1=O (stereo partly drawn) [Example 130, (3R)-3-(2-(2,6-difluoro-4-hydroxyphenyl)-2-(4-ethyl-2,3-dioxopiperazine-1-carboxamido)acetamido)-7-fluoro-2-hydroxy-3,4-dihydro-2H-benzo[e][1,2]oxaborinine-8-carboxylic acid] | D (D represents a potency <10 μM) | 4 to 8 (≈ 6.92 to 13.8 µM) | 16 to 32 (≈ 27.7 to 55.3 µM) | > 64 | 1 to 2 (≈ 1.73 to 3.46 µM) | 4 to 8 (≈ 6.92 to 13.8 µM) | 4 to 8 (≈ 6.92 to 13.8 µM) | 16 to 32 (≈ 27.7 to 55.3 µM) | 16 to 32 (≈ 27.7 to 55.3 µM)
NS(=O)(=O)Nc1cccc(C(NC(=O)N2CCN(Cc3c(F)cc(O)c(O)c3Cl)C(=O)C2=O)C(=O)N[C@H]2Cc3cccc(C(=O)O)c3OB2O)c1 (stereo partly drawn) [Example 131, (3R)-3-(2-(4-(2-chloro-6-fluoro-3,4-dihydroxybenzyl)-2,3-dioxopiperazine-1-carboxamido)-2-(3-(sulfamoylamino)phenyl)acetamido)-2-hydroxy-3,4-dihydro-2H-benzo[e][1,2]oxaborinine-8-carboxylic acid] | D (D represents a potency <10 μM) | > 64 | > 64 | > 64 | 16 to 32 (≈ 21.4 to 42.7 µM) | > 64 | > 64 | > 64 | > 64
NS(=O)(=O)c1cc(O)cc(C(NC(=O)N2CCN(Cc3c(F)cc(O)c(O)c3Cl)C(=O)C2=O)C(=O)N[C@H]2Cc3cccc(C(=O)O)c3OB2O)c1 (stereo partly drawn) [Example 132, (3R)-3-(2-(4-(2-chloro-6-fluoro-3,4-dihydroxybenzyl)-2,3-dioxopiperazine-1-carboxamido)-2-(3-hydroxy-5-sulfamoylphenyl)acetamido)-2-hydroxy-3,4-dihydro-2H-benzo[e][1,2]oxaborinine-8-carboxylic acid] | D (D represents a potency <10 μM) | > 64 | > 64 | > 64 | 16 to 32 (≈ 21.3 to 42.7 µM) | > 64 | > 64 | > 64 | > 64
CCN1CCN(C(=O)NC(C(=O)N[C@H]2Cc3cccc(C(=O)O)c3OB2O)c2cc(F)c(C(=O)O)cc2F)C(=O)C1=O (stereo partly drawn) [Example 137, (3R)-3-(2-(4-carboxy-2,5-difluorophenyl)-2-(4-ethyl-2,3-dioxopiperazine-1-carboxamido)acetamido)-2-hydroxy-3,4-dihydro-2H-benzo[e][1,2]oxaborinine-8-carboxylic acid] | D (D represents a potency <10 μM) | 4 to 8 (≈ 6.8 to 13.6 µM) | 4 to 8 (≈ 6.8 to 13.6 µM) | 16 to 32 (≈ 27.2 to 54.4 µM) | 0.25 to 0.5 (≈ 0.425 to 0.85 µM) | 1 to 2 (≈ 1.7 to 3.4 µM) | 1 to 2 (≈ 1.7 to 3.4 µM) | 16 to 32 (≈ 27.2 to 54.4 µM) | 4 to 8 (≈ 6.8 to 13.6 µM)
